Counter-ions that a name gives are not always drawn.

This assay deals with bacterial strains that express KPC β-lactamases. The assay is described as follows: Synergy MIC / standard BLI potentiation MIC assay against strains expressing KPC β-lactamases. The class given is cell-based. Particulars: in the presence of a β-lactam; comparator Avibactam. The procedure: The experimental protocol was performed according to Clinical and Laboratory Standards Institute (CLSI) guidelines with modifications as described below (CLSI guidelines can be derived from the CLSI document M07-A9 published in January 2012: “Methods for Dilution Antimicrobial Susceptibility Tests for Bacteria That Grow Aerobically; Approved Standard-Ninth Edition”).
To prepare for MIC testing, frozen glycerol stocks of clinical isolates (Klebsiella pneumoniae, Eschericia coli, Enterobacter spp, Citrobacter spp, or Pseudomonas aeruginosa) were used to streak for isolated colonies on rich, non-selective, tryptic soy agar containing 5% sheep's blood (TSAB). Frozen glycerol stocks of laboratory engineered, isogenic E. coli strains, which contain cloned β-lactamase expressing plasmids were used to streak for isolated colonies on rich, selective LB agar supplemented with 25 μg/mL tetracycline to maintain the plasmid. All strains were incubated at 37° C. for 18-24 hrs.
On the day of testing, primary cultures were started by scraping off 5-10 colonies from the TSAB plates containing clinical strains or the tetracycline supplemented LB plates containing engineered strains. The clinical strain material was suspended in ˜5 mL of cation adjusted Mueller Hinton Broth (CAMHB) in 14 mL culture tubes. The engineered strain material was suspended in CAMHB (supplemented with 25 μg/mL tetracycline) in 14 mL culture tubes. All strains were incubated at 37° C. with aeration (200 rpm) for ˜2 hrs until the optical density at 600 nm (OD600) was >0.1.
The two compound components of the assay were each diluted in CAMHB and added to the 96-well broth microdilution assay plates. 50 μL of the β-lactam was added to each well of the assay plate in 2-fold dilutions with final concentrations ranging from 128 to 0.13 μg/mL. 25 μL, of the BLI compound was added to all wells in the broth microdilution plates at a final concentration of 4 μg/mL. Inoculum cultures were prepared by standardizing the primary cultures to OD600=0.1 and then adding 20 μL of the adjusted primary culture per 1 mL CAMHB for clinical strains or CAMHB (supplemented with tetracycline at 100 μg/mL) for engineered strains, so that the final inoculum density was ˜10^5 colony forming units per milliliter. Diluted inoculum cultures were used to inoculate 25 μl, per well in 96-well broth microdilution assay plates. The final volume of each well was 100 μL and contained a β-lactam at different concentrations, a BLIcompound at 4 μg/mL concentration, the bacterial culture at an OD600 of approximately 0.001 and when necessary tetracycline at 25 μg/mL.
Plates were incubated for 18-20 hours at 37° C. with aeration (200 rpm). Following incubation, growth was confirmed visually placing plates over a viewing apparatus (stand with a mirror underneath) and then OD600 was measured using a SpectraMax 340PC384 plate reader (Molecular Devices, Sunnyvale, Calif.). Growth was defined as turbidity that could be detected with the naked eye or achieving minimum OD600 of 0.1. MIC values were defined as the lowest concentration producing no visible turbidity.
The synergy MIC (sMIC) assay determines the concentration of the BLI required to potentiate the activity of a fixed concentration of a β-lactam antibiotic against β-lactamase producing bacterial strains. The experimental protocol was performed according to Clinical and Laboratory Standards Institute (CLSI) guidelines with modifications as described below (CLSI guidelines can be derived from the CLSI document M07-A9 published in January 2012: “Methods for Dilution Antimicrobial Susceptibility Tests for Bacteria That Grow Aerobically; Approved Standard-Ninth Edition”). […]
As to `N=C(N)NC[C@H](O)c1nnc([C@@H]2CC[C@@H]3CN2C(=O)N3OS(=O)(=O)O)o1` [Compound 732, (2S,5R)-2-(5-((S)-2-guanidino-1-hydroxyethyl)-1,3,4-oxadiazol-2-yl)-7-oxo-1,6-diazabicyclo[3.2.1]octan-6-yl hydrogen sulfate], the “more active than Avibactam for at least one bacterial strain that expresses KPC β-lactamase and/or better spectrum of activity against KPC strains” value (shortened to “more active than Avibactam … against KPC strains”) is “more active than Avibactam”.
As for `CNCCCc1nnc([C@@H]2CC[C@@H]3CN2C(=O)N3OS(=O)(=O)O)o1` [Compound 734, 2S,5R)-2-(5-(3-(methylamino)propyl)-1,3,4-oxadiazol-2-yl)-7-oxo-1,6-diazabicyclo[3.2.1]octan-6-yl hydrogen sulfate], the “more active than Avibactam … against KPC strains” value is recorded as “more active than Avibactam”.
Under `NCCCCc1nnc([C@@H]2CC[C@@H]3CN2C(=O)N3OS(=O)(=O)O)o1` [Compound 735, (2S,5R)-2-(5-(4-aminobutyl)-1,3,4-oxadiazol-2-yl)-7-oxo-1,6-diazabicyclo[3.2.1]octan-6-yl hydrogen sulfate] stands “more active than Avibactam”.
Take `O=C1N2C[C@@H](CC[C@H]2c2nnc(CCNCCO)o2)N1OS(=O)(=O)O` [Compound 736, (2S,5R)-2-(5-(2-((2-hydroxyethyl)amino)ethyl)-1,3,4-oxadiazol-2-yl)-7-oxo-1,6-diazabicyclo[3.2.1]octan-6-yl hydrogen sulfate]: the “more active than Avibactam … against KPC strains” value was “more active than Avibactam”.
Under `CC(C)(N)Cc1nnc([C@@H]2CC[C@@H]3CN2C(=O)N3OS(=O)(=O)O)o1` [Compound 737, (2S,5R)-2-(5-(2-amino-2-methylpropyl)-1,3,4-oxadiazol-2-yl)-7-oxo-1,6-diazabicyclo[3.2.1]octan-6-yl hydrogen sulfate] stands “more active than Avibactam”; under `N=C(N)Nc1nnc([C@@H]2CC[C@@H]3CN2C(=O)N3OS(=O)(=O)O)o1` [Compound 738, (2S,5R)-2-(5-guanidino-1,3,4-oxadiazol-2-yl)-7-oxo-1,6-diazabicyclo[3.2.1]octan-6-yl hydrogen sulfate], “more active than Avibactam”; under `N=C(N)NC1(Cc2nnc([C@@H]3CC[C@@H]4CN3C(=O)N4OS(=O)(=O)O)o2)CC1` [Compound 739, (2S,5R)-2-(5-((1-guanidinocyclopropyl)methyl)-1,3,4-oxadiazol-2-yl)-7-oxo-1,6-diazabicyclo[3.2.1]octan-6-yl hydrogen sulfate], “more active than Avibactam”.
To `O=C1N2C[C@@H](CC[C@H]2c2nnc([C@H]3[C@@H]4CNC[C@@H]43)o2)N1OS(=O)(=O)O` [Compound 740, (2S,5R)-2-(5-(3-azabicyclo[3.1.0]hexan-6-yl)-1,3,4-oxadiazol-2-yl)-7-oxo-1,6-diazabicyclo[3.2.1]octan-6-yl hydrogen sulfate] belongs “more active than Avibactam”; to `N=C(N)N1CC(Cc2nnc([C@@H]3CC[C@@H]4CN3C(=O)N4OS(=O)(=O)O)o2)C1` [Compound 741, (2S,5R)-2-(5-((1-carbamimidoylazetidin-3-yl)methyl)-1,3,4-oxadiazol-2-yl)-7-oxo-1,6-diazabicyclo[3.2.1]octan-6-yl hydrogen sulfate], “more active than Avibactam”.
Under `O=C1N2C[C@@H](CC[C@H]2c2nnc(CCC3CNC3)o2)N1OS(=O)(=O)O` [Compound 742, (2S,5R)-2-(5-(2-(azetidin-3-yl)ethyl)-1,3,4-oxadiazol-2-yl)-7-oxo-1,6-diazabicyclo[3.2.1]octan-6-yl hydrogen sulfate] stands “more active than Avibactam”; under `O=C1N2C[C@@H](CC[C@H]2c2nnc(CCCC3CNC3)o2)N1OS(=O)(=O)O` [Compound 743, (2S,5R)-2-(5-(3-(azetidin-3-yl)propyl)-1,3,4-oxadiazol-2-yl)-7-oxo-1,6-diazabicyclo[3.2.1]octan-6-yl hydrogen sulfate], “more active than Avibactam”; under `O=C1N2C[C@@H](CC[C@H]2c2nnc(COC3CNC3)o2)N1OS(=O)(=O)O` [Compound 744, (2S,5R)-2-(5-((azetidin-3-yloxy)methyl)-1,3,4-oxadiazol-2-yl)-7-oxo-1,6-diazabicyclo[3.2.1]octan-6-yl hydrogen sulfate], “more active than Avibactam”.
With `O=C1N2C[C@@H](CC[C@H]2c2nnc(CCNC3CNC3)o2)N1OS(=O)(=O)O` [Compound 745, (2S,5R)-2-(5-(2-(azetidin-3-ylamino)ethyl)-1,3,4-oxadiazol-2-yl)-7-oxo-1,6-diazabicyclo[3.2.1]octan-6-yl hydrogen sulfate], the “more active than Avibactam … against KPC strains” value is reported as “more active than Avibactam”.
Under `N=C(N)N1CC(NCc2nnc([C@@H]3CC[C@@H]4CN3C(=O)N4OS(=O)(=O)O)o2)C1` [Compound 746, (2S,5R)-2-(5-(((1-carbamimidoylazetidin-3-yl)amino)methyl)-1,3,4-oxadiazol-2-yl)-7-oxo-1,6-diazabicyclo[3.2.1]octan-6-yl hydrogen sulfate] stands “more active than Avibactam”.
To `N=C(N)N[C@H]1C[C@@H](c2nnc([C@@H]3CC[C@@H]4CN3C(=O)N4OS(=O)(=O)O)o2)C1` [Compound 749, 2S,5R)-2-(5-((1s,3R)-3-guanidinocyclobutyl)-1,3,4-oxadiazol-2-yl)-7-oxo-1,6-diazabicyclo[3.2.1]octan-6-yl hydrogen sulfate] belongs “more active than Avibactam”.
To `O=C1N2C[C@@H](CC[C@H]2c2nnc(C3CC4(CNC4)C3)o2)N1OS(=O)(=O)O` [Compound 750, (2S,5R)-2-(5-(2-azaspiro[3.3]heptan-6-yl)-1,3,4-oxadiazol-2-yl)-7-oxo-1,6-diazabicyclo[3.2.1]octan-6-yl hydrogen sulfate] belongs “more active than Avibactam”; to `N[C@H]1C[C@H](Cc2nnc([C@@H]3CC[C@@H]4CN3C(=O)N4OS(=O)(=O)O)o2)C1` [Compound 751, (2S,5R)-2-(5-(((1r,3S)-3-aminocyclobutyl)methyl)-1,3,4-oxadiazol-2-yl)-7-oxo-1,6-diazabicyclo[3.2.1]octan-6-yl hydrogen sulfate], “more active than Avibactam”; to `N=C(N)NC1CC(Cc2nnc([C@@H]3CC[C@@H]4CN3C(=O)N4OS(=O)(=O)O)o2)C1` (stereo partly drawn) [Compound 752, (2S,5R)-2-(5-(β-guanidinocyclobutyl)methyl)-1,3,4-oxadiazol-2-yl)-7-oxo-1,6-diazabicyclo[3.2.1]octan-6-yl hydrogen sulfate], “more active than Avibactam”.
With `N[C@H]1C[C@H](CCc2nnc([C@@H]3CC[C@@H]4CN3C(=O)N4OS(=O)(=O)O)o2)C1` [Compound 753, (2S,5R)-2-(5-(2-((1r,3R)-3-aminocyclobutyl)ethyl)-1,3,4-oxadiazol-2-yl)-7-oxo-1,6-diazabicyclo[3.2.1]octan-6-yl hydrogen sulfate], the “more active than Avibactam … against KPC strains” value is given as “more active than Avibactam”.

The values are drawn from patent US8933232B2, “1,3,4-oxadiazole and 1,3,4-thiadiazole beta-lactamase inhibitors” (priority 2012, dated 2015).
